Consider 12 compounds from patent US7030137B2, “Substituted thiophenes with antibacterial activity” (Replidyne, Inc., priority 2003, dated 2006).

Common to all, as to format: cell-based
For one experiment, the system named is S. pneumo. The experiment is described as follows: MIC S. pneumo (standard MIC assay modified by inclusion of cyclodextrin). To be noted: Streptococcus pneumoniae. The method, then: (§1) Compounds of the present invention were assayed for antibacterial activity against a range of pathogenic organisms (strains of S aureus, S pneumoniae, E faecalis, H influenzae and M catarrhalis) in a standard MIC assay modified by the inclusion of cyclodextrin, to assist with solubility.

The subject of a further experiment is H. influenzae. The experiment can be described thus: MIC H. influenzae (standard MIC assay modified by inclusion of cyclodextrin). To be noted: Haemophilus influenzae. The method, then:
as §1

A further experiment concerns S. aureus. The experiment is described as follows: MIC S. aureus (standard MIC assay modified by inclusion of cyclodextrin). To be noted: Staphylococcus aureus. The method, then:
as §1

In experiment [1] the test system is S. aureus, S. pneumoniae, and E. faecalis. The experiment is described as follows: MIC against some strains of gram positive pathogens. The method, then: as §1
The mark [2] stands for this setting: prior art thiophenes of U.S. Pat. No. 6,320,051.

Values after ≈ are worked out from the molar mass of the structure shown.

In the case of `Cc1c(CNCCCNc2cc(=O)c3ccccc3[nH]2)sc(Br)c1Br` [Example 1, N-(4,5-Dibromo-3-methylthiophen-2-ylmethyl)-N′-(1H-quinolin-4-one)propane-1,3-diamine], the MIC against S. pneumo is 0.06 µg/mL (≈ 0.124 µM); against H. influenzae, 32 µg/mL (≈ 65.9 µM); with S. aureus it was 0.25 µg/mL (≈ 0.515 µM); in experiment [1], 0.06 to 0.5 µg/mL (≈ 0.124 to 1.03 µM).

Turning to `C=Cc1sc(CNCCCNc2cc(=O)c3ccccc3[nH]2)c(C)c1Br` [Example 3, N-(4-bromo-3-methyl-5-vinylthiophen-2-ylmethyl)-N′-(1H-quinolin-4-one)propane-1,3-diamine], the MIC in the experiment on S. pneumo is 0.06 µg/mL (≈ 0.139 µM); against H. influenzae, 16 µg/mL (≈ 37 µM); against S. aureus it was 0.06 µg/mL (≈ 0.139 µM); in experiment [1], 0.06 to 0.5 µg/mL (≈ 0.139 to 1.16 µM).

With `Cc1c(CNCCCNc2nc3ncccc3[nH]2)sc(C(F)F)c1Br` [Example 16, N-(4-bromo-5-difluoromethyl-3-methylthiophen-2-ylmethyl)-N′-(1H-imidazo[4,5-b]pyridin-2-yl)-propane-1,3-diamine], the MIC was 4 µg/mL (≈ 9.3 µM) in the experiment with S. pneumo, 64 µg/mL (≈ 149 µM) against H. influenzae, 0.5 µg/mL (≈ 1.16 µM) against S. aureus and 0.06 to 0.5 µg/mL (≈ 0.139 to 1.16 µM) in experiment [1].

Regarding `O=c1cc(NC[C@H]2CCC[C@@H]2NCc2cc(Br)c(Br)s2)[nH]c2ccccc12` [Example 74], the MIC against S. pneumo (setting [2]) was 2 µg/mL (≈ 3.91 µM); with H. influenzae (setting [2]), above 64 µg/mL; with S. aureus (setting [2]), 2 µg/mL (≈ 3.91 µM).

Turning to `Cc1c(CNCCCNc2cc(=O)c3ccccc3[nH]2)sc(C(F)F)c1Br` [Example 7, N-(4-bromo-5-difluoromethyl-3-methylthiophen-2-ylmethyl)-N′-(1H-quinolin-4-one)propane-1,3-diamine], the MIC in the experiment on S. pneumo is 1 µg/mL (≈ 2.19 µM); in the experiment on H. influenzae, 64 µg/mL (≈ 140 µM); in the experiment on S. aureus, 1 µg/mL (≈ 2.19 µM); in experiment [1] it was 1 to 2 µg/mL (≈ 2.19 to 4.38 µM).

In the case of `Cc1c(CNCCCNc2nc3cscc3[nH]2)sc(C(F)(F)F)c1Br` [Example 20, N-(4-Bromo-3-methyl-5-trifluoromethylthiophen-2-ylmethyl)-N′-(1H-thieno[3,4-d]imidazol-2-yl)propane-1,3-diamine], the MIC in the experiment on S. pneumo was 0.5 µg/mL (≈ 1.1 µM); against H. influenzae, 16 µg/mL (≈ 35.3 µM); against S. aureus it was 0.25 µg/mL (≈ 0.551 µM); in experiment [1], 0.06 to 0.5 µg/mL (≈ 0.132 to 1.1 µM).

For `Cc1c(CNCCCNc2cc(=O)c3ccccc3[nH]2)sc(C2CC2)c1Br` [Example 6, N-(4-bromo-5-cyclopropyl-3-methylthiophen-2-ylmethyl)-N′-(1H-quinolin-4-one)propane-1,3-diamine], the MIC is 0.13 µg/mL (≈ 0.291 µM) against S. pneumo, 32 µg/mL (≈ 71.7 µM) in the experiment with H. influenzae, 0.06 µg/mL (≈ 0.134 µM) against S. aureus and 0.06 to 0.5 µg/mL (≈ 0.134 to 1.12 µM) in experiment [1].

In the case of `CCc1sc(CNCCCNc2cc(=O)c3ccccc3[nH]2)c(C)c1Br` [Example 5, N-(4-bromo-5-ethyl-3-methylthiophen-2-ylmethyl)-N′-(1H-quinolin-4-one)propane-1,3-diamine], the MIC against S. pneumo is 0.25 µg/mL (≈ 0.576 µM); against H. influenzae, 64 µg/mL (≈ 147 µM); against S. aureus it was 0.06 µg/mL (≈ 0.138 µM); in experiment [1], 0.06 to 0.5 µg/mL (≈ 0.138 to 1.15 µM).

As to `C#Cc1sc(CNCCCNc2cc(=O)c3ccccc3[nH]2)c(C)c1Br` [Example 2, N-(4-bromo-5-ethynyl-3-methylthiophen-2-ylmethyl)-N′-(1H-quinolin-4-one)propane-1,3-diamine], the MIC with S. pneumo was 0.06 µg/mL (≈ 0.139 µM); with H. influenzae, above 64 µg/mL; with S. aureus, 0.13 µg/mL (≈ 0.302 µM); in experiment [1], 0.06 to 0.5 µg/mL (≈ 0.139 to 1.16 µM).

Turning to `CC#Cc1c(CNCCCNc2cc(=O)c3ccccc3[nH]2)sc(CC)c1Br` [Example 9, N-(4-bromo-3-(1-propynyl)-5-ethylthiophen-2-ylmethyl)-N′-(1H-quinolin-4-one)propane-1,3-diamine], the MIC against S. pneumo is 0.06 µg/mL (≈ 0.131 µM); against H. influenzae it was 64 µg/mL (≈ 140 µM); against S. aureus it was 0.06 µg/mL (≈ 0.131 µM); in experiment [1] it was 0.06 to 0.5 µg/mL (≈ 0.131 to 1.09 µM).

In the case of `O=c1cc(NCCCNCc2sc(Br)c(Br)c2Br)[nH]c2ccccc12` [Example 65], the MIC in the experiment on S. pneumo (setting [2]) is 1 µg/mL (≈ 1.82 µM); with H. influenzae (setting [2]), above 64 µg/mL; with S. aureus (setting [2]), 2 µg/mL (≈ 3.64 µM).

As to `O=c1cc(NCCCNCc2cc(Br)c(Br)s2)[nH]c2ccccc12` [Example 37], the MIC with S. pneumo (setting [2]) was 1 µg/mL (≈ 2.12 µM); against H. influenzae (setting [2]), above 64 µg/mL; with S. aureus (setting [2]), 8 µg/mL (≈ 17 µM).
